Assay results taken from ChEMBL document CHEMBL1275549, “A new tetracycline efflux gene, tet(40), is located in tandem with tet(O/32/O) in a human gut firmicute bacterium and in metagenomic library clones” (Antimicrob Agents Chemother, 2008).
Converted amounts (≈) assume the structure as drawn.

Experiments:
Escherichia coli [1] = assay: Antibacterial activity against Escherichia coli EPI300 expressing tet(40) gene assessed as bacterial growth at 80 ug/ml after 18 hrs in presence of 2.5 ug/ml efflux pump inhibitor […]
Escherichia coli [2] = assay: Antibacterial activity against Escherichia coli EPI300 expressing tet(W) gene assessed as inhibition of bacterial growth at 40 ug/ml after 18 hrs in presence of 2.5 ug/ml efflux pump inhibitor CCCP; values are per cent of control
Escherichia coli [3] = assay: Antibacterial activity against Escherichia coli EPI300 expressing tet(40) gene assessed as inhibition of bacterial growth at 40 ug/ml after 18 hrs in presence of 2.5 ug/ml efflux pump inhibitor CCCP; values are per cent of control
Escherichia coli [4] = assay: Antibacterial activity against Escherichia coli EPI300 expressing tet(40) gene assessed as bacterial growth at 60 ug/ml after 18 hrs in presence of 2.5 ug/ml efflux pump inhibitor CCCP
Escherichia coli [5] = assay: Antibacterial activity against Escherichia coli EPI300 harboring plasmid GEM-T expressing tet(40) gene after 16 hrs; type: functional, organism-based; details: EPI300, 16 h
Escherichia coli [6] = assay: Antibacterial activity against Escherichia coli EPI300 expressing tet(W) gene assessed as bacterial growth at 60 ug/ml after 18 hrs in presence of 2.5 ug/ml efflux pump inhibitor CCCP
Escherichia coli [7] = assay: Antibacterial activity against Escherichia coli EPI300 expressing tet(W) gene assessed as inhibition of bacterial growth at 80 ug/ml after 18 hrs in presence of 2.5 ug/ml efflux pump inhibitor CCCP; values are per cent of control

## CN(C)[C@@H]1C(O)=C(C(N)=O)C(=O)[C@@]2(O)C(O)=C3C(=O)c4c(O)cccc4[C@@](C)(O)[C@H]3C[C@@H]12 [TETRACYCLINE]
Escherichia coli [1]
  growth, % of control: 16.5%
Escherichia coli [2]
  growth, % of control: 96.4%
Escherichia coli [3]
  growth, % of control: 56.5%
Escherichia coli [4]
  growth, % of control: 53.4%
Escherichia coli [5]
  IC50: 60 µg/mL (≈ 135 µM)
Escherichia coli [6]
  growth, % of control: 99.2%
Escherichia coli [7]
  growth, % of control: 75.4%
